Laboratory results from ChEMBL document CHEMBL1143512, “Antitubercular agents. Part 2: new thiolactomycin analogues active against Mycobacterium tuberculosis” (2005).
≈ marks a conversion by molar mass, not a printed value.

Legend:
Type in all cases: functional
Mycobacterium avium = assay: Minimum inhibitory concentration against Mycobacterium avium ATCC 49601
[1] = test system: Mycobacterium tuberculosis; assay: Minimum inhibitory concentration against Mycobacterium tuberculosis H37Rv ATCC 27294
[2] = test system: Mycobacterium tuberculosis; assay: Minimum inhibitory concentration against Mycobacterium tuberculosis sensitive clinical isolates
[3] = test system: Mycobacterium intracellulare; assay: Minimum inhibitory concentration against Mycobacterium intracellular ATCC 13950
[4] = test system: Mycobacterium tuberculosis; assay: Minimum inhibitory concentration against Mycobacterium tuberculosis sensitive clinical isolates; Range: 1-4 ug/ml
[5] = test system: Mycobacterium tuberculosis; assay: Minimum inhibitory concentration against Mycobacterium tuberculosis sensitive clinical isolates; Range:4-16 ug/ml
[6] = test system: Mycobacterium tuberculosis; assay: Minimum inhibitory concentration against Mycobacterium tuberculosis sensitive clinical isolates; Range: 0.125-0.25 ug/ml

SMILES	MIC (Mycobacterium avium) [µg/mL]	MIC [1] [µg/mL]	MIC [2] [µg/mL]	MIC [3] [µg/mL]	MIC [4] [µg/mL]	MIC [5] [µg/mL]	MIC [6] [µg/mL]
CC1=C(OCCCCN2CCOCC2)C(C)SC1=O (stereo not given)	> 16	> 16	> 16	> 16	–	–	–
CC1=C(OCCCCCN2CCOCC2)C(C)SC1=O (stereo not given)	> 16	> 16	> 16	> 16	–	–	–
COC(=O)CSCCCOC1=C(C)C(=O)SC1C (stereo not given)	> 16	> 16	> 16	> 16	–	–	–
COC(=O)CSCCCCCOC1=C(C)C(=O)SC1C (stereo not given)	> 16	> 16	> 16	> 16	–	–	–
CC1=C(OCCCCCCCCBr)C(C)SC1=O (stereo not given)	> 16	> 16	> 16	> 16	–	–	–
CC1=C(OCCCCCCBr)C(C)SC1=O (stereo not given)	> 16	> 16	> 16	> 16	–	–	–
CC1=C(OCCCCCCCCN2CCOCC2)C(C)SC1=O (stereo not given)	> 16	> 16	> 16	> 16	–	–	–
CC1=C(OCCCCCCCCCCN2CCN(C)CC2)C(C)SC1=O (stereo not given)	> 16	> 16	> 16	> 16	–	–	–
CC1=C(OCCCCN2CCN(C)CC2)C(C)SC1=O (stereo not given)	> 16	> 16	> 16	> 16	–	–	–
CC1=C(OCCCBr)C(C)SC1=O (stereo not given)	> 16	> 16	> 16	> 16	–	–	–
COC(=O)CSCCCCCCCCOC1=C(C)C(=O)SC1C (stereo not given)	8 (≈ 22.2 µM)	1 (≈ 2.77 µM)	–	4 (≈ 11.1 µM)	4 (≈ 11.1 µM)	–	–
CC1=C(OCCCN2CCN(C)CC2)C(C)SC1=O (stereo not given)	> 16	> 16	> 16	> 16	–	–	–
CC1=C(OCCCCCBr)C(C)SC1=O (stereo not given)	> 16	> 16	> 16	> 16	–	–	–
COC(=O)CSCCCCOC1=C(C)C(=O)SC1C (stereo not given)	> 16	> 16	> 16	> 16	–	–	–
COC(=O)CSCCCCCCOC1=C(C)C(=O)SC1C (stereo not given)	> 16	> 16	> 16	> 16	–	–	–
CC1=C(OCCCCCN2CCN(C)CC2)C(C)SC1=O (stereo not given)	> 16	> 16	> 16	> 16	–	–	–
CC1=C(OCCCCBr)C(C)SC1=O (stereo not given)	> 16	> 16	> 16	> 16	–	–	–
CC1=C(OCCCCCCCCN2CCN(C)CC2)C(C)SC1=O (stereo not given)	> 16	> 16	> 16	> 16	–	–	–
CC1=C(OCCCCCCCCCCBr)C(C)SC1=O (stereo not given)	> 16	4 (≈ 11 µM)	–	> 16	–	16 (≈ 44 µM)	–
CC1=C(OCCCCCCN2CCN(C)CC2)C(C)SC1=O (stereo not given)	> 16	> 16	> 16	> 16	–	–	–
CC1=C(OCCCCCCN2CCOCC2)C(C)SC1=O (stereo not given)	> 16	> 16	> 16	> 16	–	–	–
CC1=C(OCCCCCCCCCCN2CCOCC2)C(C)SC1=O (stereo not given)	> 16	> 16	> 16	> 16	–	–	–
COC(=O)CSCCCCCCCCCCOC1=C(C)C(=O)SC1C (stereo not given)	> 16	> 16	> 16	> 16	–	–	–
CC1=C(OCCCN2CCOCC2)C(C)SC1=O (stereo not given)	> 16	> 16	> 16	> 16	–	–	–
NNC(=O)c1ccncc1 [ISONIAZID]	> 16	0.25 (≈ 1.82 µM)	–	8 (≈ 58.3 µM)	–	–	0.25 (≈ 1.82 µM)
